Measured values reported in patent publication US6150335A, “Tic-containing opioid dipeptide derivatives useful as analgesics” (Astra AB, priority 1996, dated 2000).
Where a SMILES comes first, the peptide text is derived from it. [ ]: non-standard residue; d: D form. The star is where a group is joined. Tic = O=C(O)[C@@H]1Cc2ccccc2CN1; NHPhenethyl = c1ccc(CCN*)cc1

Assays:
[1] = tested on: mouse tail flick test; details: J. Kamei et al. 1995; cited from earlier work
[2] = tested on: mice; details: S. D. Comer et al. 1993; cited from earlier work
[3] = target: T1, δ opioid receptor (Rattus norvegicus, UniProt P33533); experiment: δ opioid receptor binding assay, displacement of [3H]DSLET from rat brain membranes; details: for Ki: rat brain membranes, [3H]DSLET 1.0 nM, Cheng-Prusoff; for Ki^μ/Ki^δ: δ versus μ receptor selectivity
T1 construct: Male Sprague-Dawley rats (300-350 g) from the Canadian Breeding Laboratories were decapitated and after removal of the cerebellum the brains were homogenized; from tissue; host or cells: rat brain (without cerebellum) membranes, male Sprague-Dawley
Procedure: (§1) μ and δ opioid receptor binding constants (Ki^μ,Ki^δ) of the compounds were determrined by displacement of relatively selective μ and δ radioligands from binding sites in rat brain membrane preparations calculated from the measured IC50 values on the basis of the equation by Cheng and Prusoff, (Y. C. Cheng and W. H. Prusoff Biochem. Pharmnacol. 22, 3099-3102 (1973)).
The μ-, δ- and κ-opioid receptor affinities of all new analogs were determined in binding assays based on displacement of μ-, δ- and κ-selective radioligands from rat brain membrane binding sites. In the case of κ-ligands guinea pig brain homogenates were used, since the relative proportion of κ-binding sites is higher in guinea pig brain than in rat brain. The experimental procedure being used in our laboratory represents a modified version of the binding assay described by Pasternak et al. (Mol. Pharnacol. 11, 340-351 (1975)). Male Sprague-Dawley rats (300-350 g) from the Canadian Breeding Laboratories were decapitated and after removal of the cerebellum the brains were homogenized in 30 volumes of ice-cold standard buffer (50 mnM Tris HCl , pH 7.7). After centrifugation at 30,000×g for 30 min at 4° C. the membranes were reconstituted in the original volume of standard buffer and incubated for 30 min at 37° C. (to release bound endogenous ligands). Subsequent centrifugation and resuspension of the pellet in the initial volume of fresh standard buffer yielded the final membrane suspension. Aliquots (2 ml) of the membrane preparations were incubated for 1-2 h at 25° C. with 1 ml standard buffer containing the peptide to be tested and one of the following radioligands at the final concentration indicated: [^3 H]DAMGO, μ-selective, 0.7 nM; […]; and [^3 H]U69,563, κ-selective, 0.5 nM. The incubation was terminated by filtration through Whatman GF/B filters under vacuum at 4° C. Following two washings with 5 ml portions of ice-cold standard buffer the filters were transferred to scintillation vials and treated with 1 ml Protosol (New England Nuclear) for 30 min prior to addition of 0.5 ml acetic acid and 10 ml Aquasol (New England Nuclear). After shaking for 30 min the vials were counted at an efficiency of 40-45%. All experiments were performed in duplicate and repeated at least three times. Specific binding of each of the three radioligands was defined by performing incubations in the presence of cold DAMGO, DSLET and U69,563, respectively, at a concentration of 1 micromolar. Values of half-maximal inhibition (IC50) of specific binding were obtained graphically from semilogarithmic plots. From the measured IC50-values, binding inhibition constants (Ki) were calculated based on Cheng and Prusoff's equation (Biochem. Pharmacol. 22, 3099-3102 (1973)). Ratios of the Ki -values determined in the μ-, δ- and κ-representative binding assays are a measure of the receptor selectivity of the compound under investigation (e.g. Ki^μ /Ki^μ indicates the selectivity for δ-receptors versus μ-receptors).

[4] = tested on: δ opioid receptor; details: reported at 23rd European Peptide Symposium 1994; cited from earlier work
[5] = tested on: guinea pig ileum (GPI); experiment: Guinea pig ileum (GPI) bioassay: inhibition of electrically evoked contractions; assay type: cell-based; details: normalized with [Leu5]enkephalin standard, effect primarily μ-mediated
Procedure: (§2) Bioassays based on inhibition of electrically evoked contractions of the mouse vas deferens (MVD) and of the guinea pig ileum (GPI) were performed. In the GPI assay the opioid effect is primarily mediated by μ opioid receptors, whereas in the MVD assay the inhibition of the contractions is mostly due to interaction with δ opioid receptors.
(§3) The GPI and MVD bioassays were carried out as reported in P. W. Schiller et al., Biochem. Biophys. Res. Commun. 85, 1332-1338 (1978) and J. DiMaio et al., J. Med. Chem. 25, 1432-1438 (1982). A log-dose response curve was determined with [Leu^5 ]enkephalin as standard for each ileum and vas preparation, and IC50 values of the compounds being tested were normalized according to A. A. Waterfield et al., Eur. J. Pharmacol. 58, 11-18 (1979).

[6] = tested on: mouse vas deferens (MVD); experiment: Mouse vas deferens (MVD) bioassay: inhibition of electrically evoked contractions; assay type: cell-based; details: for IC50: inhibition of electrically evoked contractions, normalized with [Leu5]enkephalin standard, effect mostly δ-mediated; for GPI/MVD IC50 ratio: ratio of GPI IC50 to MVD IC50
Procedure: as §2, §3

[7] = target: T2, μ opioid receptor (Rattus norvegicus, UniProt P33535); experiment: μ opioid receptor binding assay, displacement of [3H]DAMGO from rat brain membranes; details: [3H]DAMGO 0.7 nM, Cheng-Prusoff
T2 construct: Male Sprague-Dawley rats (300-350 g) from the Canadian Breeding Laboratories were decapitated and after removal of the cerebellum the brains were homogenized; from tissue; host or cells: rat brain (without cerebellum) membranes, male Sprague-Dawley
Procedure: as §1
The μ-, δ- and κ-opioid receptor affinities of all new analogs were determined in binding assays based on displacement of μ-, δ- and κ-selective radioligands from rat brain membrane binding sites. In the case of κ-ligands guinea pig brain homogenates were used, since the relative proportion of κ-binding sites is higher in guinea pig brain than in rat brain. The experimental procedure being used in our laboratory represents a modified version of the binding assay described by Pasternak et al. (Mol. Pharnacol. 11, 340-351 (1975)). Male Sprague-Dawley rats (300-350 g) from the Canadian Breeding Laboratories were decapitated and after removal of the cerebellum the brains were homogenized in 30 volumes of ice-cold standard buffer (50 mnM Tris HCl , pH 7.7). After centrifugation at 30,000×g for 30 min at 4° C. the membranes were reconstituted in the original volume of standard buffer and incubated for 30 min at 37° C. (to release bound endogenous ligands). Subsequent centrifugation and resuspension of the pellet in the initial volume of fresh standard buffer yielded the final membrane suspension. Aliquots (2 ml) of the membrane preparations were incubated for 1-2 h at 25° C. with 1 ml standard buffer containing the peptide to be tested and one of the following radioligands at the final concentration indicated: [^3 H]DAMGO, μ-selective, 0.7 nM; [^3 H]DSLET, […] nM; and [^3 H]U69,563, κ-selective, 0.5 nM. The incubation was terminated by filtration through Whatman GF/B filters under vacuum at 4° C. Following two washings with 5 ml portions of ice-cold standard buffer the filters were transferred to scintillation vials and treated with 1 ml Protosol (New England Nuclear) for 30 min prior to addition of 0.5 ml acetic acid and 10 ml Aquasol (New England Nuclear). After shaking for 30 min the vials were counted at an efficiency of 40-45%. All experiments were performed in duplicate and repeated at least three times. Specific binding of each of the three radioligands was defined by performing incubations in the presence of cold DAMGO, DSLET and U69,563, respectively, at a concentration of 1 micromolar. Values of half-maximal inhibition (IC50) of specific binding were obtained graphically from semilogarithmic plots. From the measured IC50-values, binding inhibition constants (Ki) were calculated based on Cheng and Prusoff's equation (Biochem. Pharmacol. 22, 3099-3102 (1973)). Ratios of the Ki -values determined in the μ-, δ- and κ-representative binding assays are a measure of the receptor selectivity of the compound under investigation (e.g. Ki^μ /Ki^μ indicates the selectivity for δ-receptors versus μ-receptors).

T1 sequence (P33533 whole entry): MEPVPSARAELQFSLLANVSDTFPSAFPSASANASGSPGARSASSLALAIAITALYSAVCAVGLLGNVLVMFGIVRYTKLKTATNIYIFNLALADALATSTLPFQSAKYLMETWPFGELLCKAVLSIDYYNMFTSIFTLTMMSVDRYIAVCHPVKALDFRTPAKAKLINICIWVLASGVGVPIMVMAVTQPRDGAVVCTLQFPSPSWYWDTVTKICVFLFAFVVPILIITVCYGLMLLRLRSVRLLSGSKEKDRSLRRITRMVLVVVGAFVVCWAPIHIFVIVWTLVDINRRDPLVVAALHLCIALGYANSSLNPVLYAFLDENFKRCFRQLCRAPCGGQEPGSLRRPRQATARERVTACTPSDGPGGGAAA
T2 sequence (P33535 whole entry): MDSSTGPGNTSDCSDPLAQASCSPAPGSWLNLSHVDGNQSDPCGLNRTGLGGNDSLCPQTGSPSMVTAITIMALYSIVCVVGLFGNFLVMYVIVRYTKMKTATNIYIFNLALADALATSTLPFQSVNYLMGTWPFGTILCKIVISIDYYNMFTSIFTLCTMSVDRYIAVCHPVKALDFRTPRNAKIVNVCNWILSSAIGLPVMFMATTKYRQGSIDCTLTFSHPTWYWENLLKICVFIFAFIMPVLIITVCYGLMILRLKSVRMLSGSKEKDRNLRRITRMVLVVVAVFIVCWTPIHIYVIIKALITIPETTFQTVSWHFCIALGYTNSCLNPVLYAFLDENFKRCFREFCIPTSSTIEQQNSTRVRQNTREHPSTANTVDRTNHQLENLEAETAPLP

| SMILES | antinociceptive effect [1] | toxicity in mice [2] | Ki [3] | Ki^μ/Ki^δ [3] | δ agonist / antagonist properties [4] | IC50 [5] | IC50 [6] | GPI/MVD IC50 ratio [6] | Ki [7] |
| --- | --- | --- | --- | --- | --- | --- | --- | --- | --- |
| CN1CC[C@]2(c3cccc(O)c3)Cc3nc4ccccc4cc3C[C@H]2C1 [TAN-67, 2-methyl-4α,α-(3-hydroxyphenyl)-1,2,3,4,4a,5,12,12aα-octahydroquinolino[2,3,3-g]isoquinoline] | no significant antinociceptive effect | – | – | – | – | – | – | – | – |
| C=CCN1C[C@H](C)N([C@H](c2ccc(C(=O)N(CC)CC)cc2)c2cccc(O)c2)C[C@H]1C (racemic) [BW 373U86, (±)-4-(a-R*)-a-(2S*,5R*)-4-allyl-2,5-dimethyl-1-piperazinyl)-3-hydroxybenzyl)-N,N-diethylbenzamide] | – | produced significant toxicity, manifested behaviorally as convulsions and barrel rolling | – | – | – | – | – | – | – |
| N[C@@H](Cc1ccc(O)cc1)C(=O)N1Cc2ccccc2C[C@H]1C(=O)NCCc1ccccc1 [H-Tyr-Tic-NH--CH2 --CH2 --Ph, reference compound] (H-Tyr-[Tic]-NHPhenethyl) | – | – | 5.22 ± 0.02 nM | 13.2 | full, but only moderately potent δ agonist | 2120 nM | 82 ± 10 nM | 25.9 | 69.1 nM |
| N[C@@H](Cc1ccc(O)cc1)C(=O)N1Cc2ccccc2C[C@H]1C(=O)NCC(C1CCCCC1)C1CCCCC1 [Example 23] | – | – | 11.3 ± 3.3 nM | 4.64 | – | 1580 ± 610 nM | 21.5 ± 6.8 nM | 73.5 | 52.4 ± 2.5 nM |
| Nc1ccc(C(CNC(=O)[C@@H]2Cc3ccccc3CN2C(=O)[C@@H](N)Cc2ccc(O)cc2)c2ccc(N)cc2)cc1 [Example 25] | – | – | 2.67 ± 0.83 nM | 2000 | – | > 10000 nM | 7.81 ± 0.48 nM | > 1280 | 5340 ± 700 nM |
| N[C@@H](Cc1ccc(O)cc1)C(=O)N1Cc2ccccc2C[C@H]1C(=O)NCC(CO)c1ccccc1 (single isomer, unassigned) [Example 28] | – | – | 7.8 ± 2.8 nM | 31.0 | – | > 10000 nM | 92.6 ± 6 nM | > 108 | 242 ± 20 nM |
| N[C@@H](Cc1ccc(O)cc1)C(=O)N1Cc2ccccc2C[C@H]1C(=O)NCCc1ccccc1Br [Example 5] | – | – | 1.24 ± 0.27 nM | 18.8 | – | 613 ± 26 nM | 13.9 ± 1.9 nM | 44.1 | 23.3 ± 7.7 nM |
